In series [1] the test system is B. cereus. The format is cell-based. As to conditions: broth microdilution, Mueller-Hinton broth, approximately 10^5 CFU/mL, 37°C, 24 h, absorbance 590 nm, at least triplicate. The method, then: (§1) Luria-Bertani broth (LB) and Sabouraud Dextrose broth (SB) (Biocorp, Poland) were used for cultivation of bacteria and fungi strains, respectively. Antimicrobial activity of peptides was analyzed through determination of MIC (minimal inhibitory concentration) parameter according to the standard microdilution technique performed on 96-well plates. Mueller-Hinton broth (MHB) was used as the working medium for all bacterial strains, while in case of fungi it was additionally supplemented with 2% glucose.
(§2) Briefly, inoculum was prepared from freshly grown cultures of microorganisms being at their exponential phase of growth. Each well of 96-well plates containing 100 μL of serially diluted peptides in PBS (phosphate buffer saline) at concentration ranging from 2 to 250 μg/mL were inoculated with 100 μL of approximately 10^5 CFU/mL of bacterial suspension or about 2.5 x 10^3 CFU/mL of fungi suspended in a double concentrated Mueller-Hinton broth (supplemented with 2% glucose for Candida spps.). Then plates were incubated overnight at 37°C and absorbance was read at 590 nm after 24 h. Cultures without peptide were treated as positive control, while uninoculated Mueller-Hinton broth was defined as negative control. All measurements were run at least in triplicate.
(§3) All peptides were screened against the wide range of microorganisms, including Gram-negative, Gram-positive bacteria and fungi from Candida species (Table 2). Broth microdilution method for MIC determination was used as a standard procedure. All assays were performed on liquid Mueller-Hinton broth, which was additionally supplemented with 2% glucose when fungicidal activity towards Candida spps. was analyzed.

The test system of series [2] is B. subtilis. Type of series: cell-based. The conditions noted are these: broth microdilution, Mueller-Hinton broth, approximately 10^5 CFU/mL, 37°C, 24 h, absorbance 590 nm, at least triplicate. The method, then:
as §1, §2, §3

Series [3] has as its system Candida albicans (CCM 8186). Type of series: cell-based. As to conditions: broth microdilution, Mueller-Hinton broth + 2% glucose, about 2.5 x 10^3 CFU/mL, 37°C, 24 h, absorbance 590 nm, peptide 2 to 250 μg/mL, at least triplicate.
Description: (§4) Escherichia coli (PCM 2057), Staphylococcus aureus (PCM 2054), Staphylococcus epidermidis (PCM 2118), Pseudomonas aeruginosa (PCM 499) were obtained from Polish Collection of Microorganisms. Fungi strains Candida albicans (CCM 8186), Candida glabrata (CCM 8270), Candida parapsilosis (CCM 8260), Candida krusei (CCM 8271), Candida tropicalis (CCM 8264) were acquired from Czech Collection of Microorganisms.
as §1, §2, §3

Series [4] relates to Candida glabrata (CCM 8270). Type of series: cell-based. The conditions noted are these: broth microdilution, Mueller-Hinton broth + 2% glucose, about 2.5 x 10^3 CFU/mL, 37°C, 24 h, absorbance 590 nm, at least triplicate.
Description: as §4, §1, §2, §3

For series [5], the system named is Candida krusei (CCM 8271). Type of series: cell-based. The conditions noted are these: broth microdilution, Mueller-Hinton broth + 2% glucose, about 2.5 x 10^3 CFU/mL, 37°C, 24 h, absorbance 590 nm, at least triplicate.
Description: as §4, §1, §2, §3

The subject of series [6] is Candida parapsilosis (CCM 8260). The format is cell-based. As to conditions: broth microdilution, Mueller-Hinton broth + 2% glucose, about 2.5 x 10^3 CFU/mL, 37°C, 24 h, absorbance 590 nm, at least triplicate.
Description: as §4, §1, §2, §3

The subject of series [7] is Candida tropicalis (CCM 8264). Type of series: cell-based. As to conditions: broth microdilution, Mueller-Hinton broth + 2% glucose, about 2.5 x 10^3 CFU/mL, 37°C, 24 h, absorbance 590 nm, at least triplicate.
Description: as §4, §1, §2, §3

Series [8] relates to Escherichia coli (PCM 2057). Type of series: cell-based. The conditions noted are these: broth microdilution, Mueller-Hinton broth, approximately 10^5 CFU/mL, 37°C, 24 h, absorbance 590 nm, at least triplicate.
Description: as §4, §1, §2, §3

For series [9], the system named is Pseudomonas aeruginosa (PCM 499). The format is cell-based. The conditions noted are these: broth microdilution, Mueller-Hinton broth, approximately 10^5 CFU/mL, 37°C, 24 h, absorbance 590 nm, at least triplicate.
Description: as §4, §1, §2, §3

For series [10], the system named is Staphylococcus aureus (PCM 2054). Type of series: cell-based. The conditions noted are these: broth microdilution, Mueller-Hinton broth, approximately 10^5 CFU/mL, 37°C, 24 h, absorbance 590 nm, at least triplicate.
Description: as §4, §1, §2, §3

For series [11], the system named is Staphylococcus epidermidis (PCM 2118). Type of series: cell-based. The conditions noted are these: broth microdilution, Mueller-Hinton broth, approximately 10^5 CFU/mL, 37°C, 24 h, absorbance 590 nm, at least triplicate.
Description: as §4, §1, §2, §3

For series [12], the system named is HaCaT keratinocytes. Briefly: Cell migration assay (in vitro scratch test). The format is cell-based, human. The conditions noted are these: 25 μg/mL, 24 h. The method, then: Fibroblasts and keratinocytes were seeded (5x10^5 cells/well) in 6-well plates. When desired monolayer confluence was reached, cells were starved for 24 hours in serum-free DMEM. The monolayer was scratched then with 200μL-pipette tip. The floating cells and cell debris were removed by double washing in PBS, further replaced with a fresh serum-free medium. Wounded monolayers were incubated for the next 24 h in the presence of tested peptides used at concentration of 25 μg/mL and 5 μg/mL of Mitomycin C (Sigma Aldrich) to prevent proliferation. At the end of the experiment medium was removed and the cells were fixed with 3.7% PFA for 5 min, stained for the next 30 min with 0.05% crystal violet solution, washed several times with distilled water and the plates were left inverted for a couple of minutes to drain. The wounded areas were then photographed by means of Zeiss Observer D1 microscope equipped with camera AxioCam and analyzed with AxioVision software (Carl Zeiss, Germany). Migration activity of the cells treated with the tested peptides were expressed as the percentage of the wounded area with respect to the control probe (cell cultures without any of the peptide), assumed as 100%.
An in vitro scratch test was performed to investigate the effect of the analyzed compounds on keratinocytes and fibroblasts migration. Evaluation was based on the efficiency of the invasion of the monolayer cells to the prewounded area within 24 h after stimulation with the appropriate compound added at concetration of 25μg/mL.
Fig 2 Effect of the peptides on HaCaT keratinocytes and fibroblasts cell migration in the in vitro scratch test. HaCaT cells and fibroblasts were grown in 6-well plates until the 100% confluence was reached, then cells were starved for the next 12 hours in DMEM without 10% FCS and scratched once vertically with a 200μL pipette tip. After being washed two times with sterile PBS, a fresh portion of DMEM medium was added and cells were treated with the tested peptides applied at their optimal doses (25 μg/mL). Migration was analyzed after 24 hours by means of Zeiss Observer D1 microscope, wounding areas were analyzed with AxioVision software and expressed as the percentage of the wound width in comparison to the control sample (cells incubated in DMEM without FCS). Control+ FCS corresponds to the sample with cells incubated in the medium containing 10% FCS and was treated as the additional positive control. Data represent the mean ± SD of three independent experiments. *P < 0.05, **P < 0.01, ***P < 0.001 vs. control.

Series [13] relates to human primary dermal fibroblasts. Briefly: Cell migration assay (in vitro scratch test). Type of series: cell-based. The conditions noted are these: 25 μg/mL, 24 h, serum-free DMEM, Mitomycin C 5 μg/mL, vs. control without peptide, three independent experiments. The method, then: Biopsies of healthy human skin were obtained aseptically from three donors (47–69 years old) undergoing circumcision after obtaining their written informed consent. All the procedures were approved by the Ethics Committee of Medical University of Gdansk (NKEBN/483/2011. Issued: 2011-12-19). The samples were washed several times with sterile PBS (Sigma-Aldrich, Germany) containing antibiotic (200 U/mL penicillin and 200 μg/mL streptomycin), after which, the subcutaneous tissue was cut off with a sharp blade. The resulting sheets were cut into small fragments, washed two times with sterile PBS and treated with 6 U/mL dispase II (BD, USA) overnight at 4°C to separate epidermis and dermis. The dermis was then digested with 1.0 mg/mL collagenase type I (from Clostridium histolyticum Sigma-Aldrich, Germany) for 2 hours at 37°C to isolate fibroblasts. Cells were used between the 2nd and 4th passage in all experiments.
Fibroblasts and keratinocytes were seeded (5x10^5 cells/well) in 6-well plates. When desired monolayer confluence was reached, cells were starved for 24 hours in serum-free DMEM. The monolayer was scratched then with 200μL-pipette tip. […] The wounded areas were then photographed by means of Zeiss Observer D1 microscope equipped with camera AxioCam and analyzed with AxioVision software (Carl Zeiss, Germany). Migration activity of the cells treated with the tested peptides were expressed as the percentage of the wounded area with respect to the control probe (cell cultures without any of the peptide), assumed as 100%.
An in vitro scratch test was performed to investigate the effect of the analyzed compounds on keratinocytes and fibroblasts migration. […]
Fig 2 Effect of the peptides on HaCaT keratinocytes and fibroblasts cell migration in the in vitro scratch test. […] Migration was analyzed after 24 hours by means of Zeiss Observer D1 microscope, wounding areas were analyzed with AxioVision software and expressed as the percentage of the wound width in comparison to the control sample (cells incubated in DMEM without FCS). […]

Series [14] in a line: Circular dichroism, alpha-helical content. Type of series: physicochemical. The conditions noted are these: CD, mean residue ellipticity at 222 nm (Eq 1), peptide 0.4 mg/ml in 30 mM SDS, room temperature. The method, then: Circullar dichroism spectra of analyzed compounds were recorded on a Jasco J-815 spectropolarimeter using a quartz cell of 1 mm path length between 195–260 nm at room temperature. Peptides at concentration of 0.4 mg/ml were dissolved in water or 30 mM SDS solution. SDS micelle system was used as the simplified model of negatively charged lipid membrane. On the basis of the obtained results the alpha-helical content was determined from the mean residue ellipticities at 222 nm according to Eq 1: %Helix=([θ]obs/([θ]helixx(1−2.57/l))x100, (1) where [θ] obs is the experimentally observed mean-residue ellipticity at 222 nm, [θ]helix is the theoretical ellipticity of peptide of infinite length with a 100% helix population, taken as -39 500 deg·cm^2/dmol, and l is the number of peptide bonds.
Circular dichroism method was applied to obtain a basic information about the secondary structure of the synthesized compounds (with the exception of CAR, CAR3, DAL, CTEN2) in two chemical environments, water and 30 mM SDS. As expected, all the tested compounds in water adopted a random-coil structure, while in the presence of 30 mM SDS most of them formed α-helices with characteristic negative minima around 208 and 220 nm. […] The examples of CD spectra for selected peptides could be seen in supporting information (Figure A in S1 File). On the basis of the experimentally obtained values of the mean residue ellipticities of peptides at 222 nm their alpha-helical content was calculated according to the Eq 1 (Table 1).

The values below come from article PMC4608580, “Synthesis and Evaluation of Biological Activity of Antimicrobial – Pro-Proliferative Peptide Conjugates” (PLoS ONE, 2015).

Converted amounts (≈) assume the structure as drawn. Residues, ends and D or L forms follow the SMILES beside them.

Consider `CC(C)C[C@H](NC(=O)[C@H](Cc1ccccc1)NC(=O)CNC(=O)[C@@H](C)NC(=O)[C@@H](N)Cc1ccc(O)cc1)C(=O)N[C@@H](CCCNC(=N)N)C(=O)NCCOCCOCC(=O)N[C@@H](CCCCN)C(=O)N[C@@H](CCCCN)C(=O)N[C@H](C(=O)N[C@H](C(=O)N[C@@H](Cc1ccccc1)C(=O)N[C@@H](Cc1c[nH]c2ccccc12)C(=O)N[C@H](C(=O)N[C@@H](CCCCN)C(=O)N[C@@H](Cc1ccccc1)C(=O)N[C@@H](CCCCN)C(N)=O)C(C)C)C(C)C)C(C)C` [DAL-PEG-KSLW] (HELM PEPTIDE1{Y.[dA].G.F.L.R.[O=C(COCCOCCN[*:1])[*:2]].K.K.V.V.F.W.V.K.F.K.[am]}$$$$V2.0; N-terminus assumed), for which the “MIC B. cereus” value in series [1] was determined as 125 mg/L (≈ 57.9 µM). Further, the “MIC B. subtilis” value in [2] was 15.6 mg/L (≈ 7.22 µM). The “MIC C. albicans” value in [3] turned out to be 31.3 mg/L. In addition, the “MIC C.glabrata” value in series [4] is 125 mg/L. In addition, the “MIC C.krusei” value in [5] is 31.3 mg/L. Moreover, the “MIC C. parapsilosis” value in [6] was determined as 62.5 mg/L. For the same compound, the “MIC C.tropicalis” value in series [7] amounted to 7.8 mg/L. Besides, in series [8], the “MIC E.coli” value is 7.8 mg/L (≈ 3.61 µM). Further, the “MIC P. aeruginosa” value in series [9] was determined as 62.5 mg/L (≈ 28.9 µM). In addition, in series [10], the “MIC S.aureus” value was 62.5 mg/L (≈ 28.9 µM). Besides, the “MIC S. epidermidis” value in series [11] was 3.9 mg/L (≈ 1.8 µM). Besides, the “Effect on keratinocyte migration (scratch test), in words” value in series [12] (serum-free DMEM, Mitomycin C 5 μg/mL, vs. control without peptide, three independent experiments) is “best results”. Besides, the “Keratinocyte migration higher than that of the native peptides KSLW and DAL” value in series [12] (scratch test) was “about 15%”. In addition, the “Effect on fibroblast migration (scratch test), in words” value in series [13] is “highest migration rate”. Moreover, in series [14], the α-helicity turned out to be 22%.
